In the supplement of paper PMC10307832:

Experiments:
Experiment in all cases: relative viability (nuclei count vs DMSO), 5 days (fraction); higher = more cells survive
[1] = compound: CN(C)C/C=C/C(=O)Nc1cc2c(Nc3ccc(F)c(Cl)c3)ncnc2cc1O[C@H]1CCOC1 [Afatinib] + CC(=O)c1c(C)c2cnc(Nc3ccc(N4CCNCC4)cn3)nc2n(C2CCCC2)c1=O [Palbociclib] (partner 0.5 µM)
Outline: (§1)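 Relative viability is defined as nuclei in treated wells over nuclei in vehicle wells. Duplicate plates were run and medians reported. Lung cancer cell lines in 1536-well plates were dosed by pin tool one day after seeding, with one drug or with a fixed anchor-drug dose plus five library-drug doses (not always all listed) in √10 steps, and nuclei were counted after 5 days.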

[2] = compound: CN(C)C/C=C/C(=O)Nc1cc2c(Nc3ccc(F)c(Cl)c3)ncnc2cc1O[C@H]1CCOC1 [Afatinib] + CCNC(=O)c1noc(-c2cc(C(C)C)c(O)cc2O)c1-c1ccc(CN2CCOCC2)cc1 [Luminespib] (partner 0.01 µM)
Outline: as §1

[3] = compound: CN(C)C/C=C/C(=O)Nc1cc2c(Nc3ccc(F)c(Cl)c3)ncnc2cc1O[C@H]1CCOC1 [Afatinib] + COc1cccc2cc(-c3nc([C@H]4CC[C@H](C(=O)O)CC4)n4ncnc(N)c34)[nH]c12 [OSI-027] (partner 0.5 µM)
Outline: as §1

[4] = compound: CN(C)C/C=C/C(=O)Nc1cc2c(Nc3ccc(F)c(Cl)c3)ncnc2cc1O[C@H]1CCOC1 [Afatinib] + CS(=O)(=O)N1CCN(Cc2cc3nc(-c4cccc5[nH]ncc45)nc(N4CCOCC4)c3s2)CC1 [Pictilisib] (partner 1 µM)
Outline: as §1

Cell Line	relative viability ([1]; first compound 0.005 µM)	relative viability ([1]; first compound 0.01581 µM)	relative viability ([1]; first compound 0.05 µM)	relative viability ([1]; first compound 0.1581 µM)	relative viability ([1]; first compound 0.5 µM)	relative viability ([2]; first compound 0.005 µM)	relative viability ([2]; first compound 0.01581 µM)	relative viability ([2]; first compound 0.05 µM)	relative viability ([2]; first compound 0.1581 µM)	relative viability ([2]; first compound 0.5 µM)	relative viability ([3]; first compound 0.005 µM)	relative viability ([3]; first compound 0.01581 µM)	relative viability ([3]; first compound 0.05 µM)	relative viability ([3]; first compound 0.1581 µM)	relative viability ([3]; first compound 0.5 µM)	relative viability ([4]; first compound 0.005 µM)	relative viability ([4]; first compound 0.01581 µM)	relative viability ([4]; first compound 0.05 µM)	relative viability ([4]; first compound 0.1581 µM)	relative viability ([4]; first compound 0.5 µM)
NCI-H441	0.234	0.231	0.163	0.183	0.207	0.442	0.431	0.325	0.249	0.222	0.677	0.582	0.499	0.481	0.426	0.431	0.504	0.436	0.481	0.31
NCI-H2126	0.342	0.338	0.364	0.342	0.314	0.958	0.861	0.796	0.681	0.718	0.732	0.641	0.547	0.494	0.415	0.487	0.447	0.36	0.436	0.37
HCC-44	1	0.968	1.05	0.944	1.02	0.957	1.11	1.13	1.17	1.26	0.588	0.446	0.521	0.542	0.431	0.619	0.619	0.638	0.514	0.533
NCI-H460	0.165	0.175	0.237	0.184	0.242	0.0369	0.0258	0.0533	0.0327	0.032	0.716	0.629	0.676	0.705	0.666	0.371	0.39	0.339	0.35	0.343
